The test system of assay [1] is K. pneumoniae MXX1232. As to the kind of experiment: Antibacterial activity, MIC, resistant strain (Table 4). Format: cell-based. The following applies: Klebsiella pneumoniae, MXX1232; resistant K. pneumoniae MMX1232, multi-drug resistant clinical isolate; read-out: MIC, MMX1232. In a few lines: (§1)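 Broth microdilution; MIC (μg/mL) = lowest concentration with no macroscopically visible growth. Resistant strains: multi-drug resistant clinical isolates.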

Assay [2] concerns A. baumannii MXX2240. The assay is described as above. In kind it is cell-based. The following applies: Acinetobacter baumannii, MXX2240; resistant A. baumannii MMX2240, multi-drug resistant clinical isolate; read-out: MIC, MMX2240. In a few lines: as §1
The subject of assay [3] is Haemophilus influenzae (H. influenzae) 49247. As to the kind of experiment: Antibacterial activity, MIC (Table 6). In kind it is cell-based. In a few lines:
(§2)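 Values are minimum inhibitory concentrations in μg/mL, determined by microbroth dilution as the lowest concentration with no macroscopically visible growth.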

Assay [4] deals with Neisseria meningitidis (N. meningitidis) 13090. The assay is described as follows: Antibacterial activity, MIC (Table 8). In kind it is cell-based. Summed up: as §2
Assay [5] concerns Klebsiella pneumoniae (K. pneumoniae) 35657. The assay is described as follows: Antibacterial activity, MIC (Table 4). Format: cell-based. The following applies: K. pneumoniae 35657, read-out: MIC, 35657. Summed up: as §1
The subject of assay [6] is Acinetobacter baumannii (A. baumannii) BAA747. As to the kind of experiment: Antibacterial activity, MIC (Table 4). Format: cell-based. Conditions: A. baumannii BAA747, read-out: MIC, BAA747. Summed up: as §1
Assay [7] concerns E. coli 25922. The assay is described as follows: Antibacterial activity, microbroth dilution MIC (Table 1). In kind it is cell-based, Escherichia coli. The following applies: Escherichia coli; microbroth dilution; control Gram-negative E. coli 25922 strain; read-out: MIC, 25922. In a few lines: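 Each strain is exposed to test compound in a microbroth dilution series; visible growth is scored macroscopically, and the lowest growth-free concentration is recorded as MIC in μg/mL.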

In assay [8] the test system is Pseudomonas aeruginosa (P. aeruginosa) 27853. As to the kind of experiment: Antibacterial activity, MIC (Table 5). The following applies: P. aeruginosa 27853, read-out: MIC, 27853. Format: cell-based. Summed up: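 Using a microbroth dilution format, the minimum inhibitory concentration was recorded as the lowest tested concentration that stopped visible bacterial growth, expressed in μg/mL.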

Assay [9] has as its system E. coli LZ3111. As to the kind of experiment: Antibacterial activity, MIC, quinolone resistant strain (Table 2). In kind it is cell-based. The following applies: Escherichia coli, LZ3111, read-out: MIC LZ3111. Summed up:
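Growth inhibition assessed by serial drug dilution in broth; endpoint was absence of macroscopically visible growth, reported as MIC, μg/mL.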

Assay [10] has as its system Moraxella catarrhalis (M. catarrhalis) 25238. As to the kind of experiment: Antibacterial activity, MIC (Table 7). In kind it is cell-based. Summed up:
as §2

In assay [11] the test system is Escherichia coli (E. coli) BAS849. As to the kind of experiment: Antibacterial activity, microbroth dilution MIC (Table 1). Format: cell-based. Conditions: microbroth dilution, super sensitive Gram-negative E. coli BAS849, read-out: MIC, BAS849. In a few lines: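 Using broth microdilution, MIC endpoints (μg/mL) mark where visible growth no longer appears; the panel spans sensitive and control Gram-negative strains plus a Gram-positive strain.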

The test system of assay [12] is Staphylococcus aureus (S. aureus) 29213. Described as above. Conditions: microbroth dilution, Gram-positive S. aureus 29213, read-out: MIC, 29213. Format: cell-based. In a few lines: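 Potency is reported as minimum inhibitory concentration in μg/mL, determined by broth microdilution as the lowest level of compound that stops growth visible to the eye.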
The subject of assay [13] is E. coli ELZ4000. The assay is described as follows: Antibacterial activity, MIC, multi-drug resistant clinical isolate (Table 3). Format: cell-based. The following applies: Escherichia coli, ELZ4000, read-out: MIC ELZ4000. In a few lines: (§3)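 Values derive from a microbroth dilution method, taking as MIC (μg/mL) the lowest tested concentration without macroscopically visible growth.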

Assay [14] concerns E. coli ELZ4251. The description is as above. In kind it is cell-based. Conditions: Escherichia coli. Summed up:
as §3

Converted amounts (≈) assume the structure as drawn.

As for `CCc1c(-c2ccc3c(c2)cc(CN2CCC(N4CCCCC4)CC2)n3C)[nH]c(=O)c(C(=O)O)c1O` [Cpd 251, 6-(2-(1,4′-bipiperidin-1′-ylmethyl)-1-methyl-1H-indol-5-yl)-5-ethyl-4-hydroxy-2-oxo-1,2-dihydropyridine-3-carboxylic acid], the MIC in assay [1] was 12.5 to 150 µg/mL (≈ 25.4 to 304 µM); in [2], 12.5 to 150 µg/mL (≈ 25.4 to 304 µM); in assay [3], 1 to 3.5 µg/mL (≈ 2.03 to 7.1 µM); in [4], less than 1 µg/mL; in assay [5], 1 to 3.5 µg/mL (≈ 2.03 to 7.1 µM); in assay [6], 3.5 to 12.5 µg/mL (≈ 7.1 to 25.4 µM). Moreover, the MIC in assay [7] was 1 to 3.5 µg/mL (≈ 2.03 to 7.1 µM); in assay [8], 12.5 to 150 µg/mL (≈ 25.4 to 304 µM); in assay [9], 3.5 to 12.5 µg/mL (≈ 7.1 to 25.4 µM); in [10] it was less than 1 µg/mL; in assay [11], less than 1 µg/mL; in assay [12], 3.5 to 12.5 µg/mL (≈ 7.1 to 25.4 µM). The MIC in assay [13] and in assay [14] was 12.5 to 150 µg/mL (≈ 25.4 to 304 µM) throughout.

As for `CCc1c(-c2ccc3c(c2)cc(CN2CCC(N)CC2)n3C)[nH]c(=O)c(C(=O)O)c1O` [Cpd 252, 6-(2-((4-aminopiperidin-1-yl)methyl)-1-methyl-1H-indol-5-yl)-5-ethyl-4-hydroxy-2-oxo-1,2-dihydropyridine-3-carboxylic acid], the MIC fell in the range of 12.5 to 150 µg/mL (≈ 29.4 to 353 µM) in assay [1]; 12.5 to 150 µg/mL (≈ 29.4 to 353 µM) in [2]; 1 to 3.5 µg/mL (≈ 2.36 to 8.24 µM) in assay [3]; 1 to 3.5 µg/mL (≈ 2.36 to 8.24 µM) in assay [4]; 1 to 3.5 µg/mL (≈ 2.36 to 8.24 µM) in assay [5]; 12.5 to 150 µg/mL (≈ 29.4 to 353 µM) in assay [6]. In addition, the MIC in [7] is 1 to 3.5 µg/mL (≈ 2.36 to 8.24 µM); in [8] it was 3.5 to 12.5 µg/mL (≈ 8.24 to 29.4 µM); in assay [9], 1 to 3.5 µg/mL (≈ 2.36 to 8.24 µM); in assay [10] it was 3.5 to 12.5 µg/mL (≈ 8.24 to 29.4 µM); in assay [11], less than 1 µg/mL; in assay [12] it was 12.5 to 150 µg/mL (≈ 29.4 to 353 µM). Further, the MIC in assay [13] and in assay [14] was 12.5 to 150 µg/mL (≈ 29.4 to 353 µM) each time.

As for `CCc1c(-c2ccc3c(c2)cc(CN2CCC[C@H](N)C2)n3C)[nH]c(=O)c(C(=O)O)c1O` [Cpd 253, (S)-6-(2-((3-aminopiperidin-1-yl)methyl)-1-methyl-1H-indol-5-yl)-5-ethyl-4-hydroxy-2-oxo-1,2-dihydropyridine-3-carboxylic acid], the MIC in assay [1] is 12.5 to 150 µg/mL (≈ 29.4 to 353 µM); in assay [2], 12.5 to 150 µg/mL (≈ 29.4 to 353 µM); in [3], 3.5 to 12.5 µg/mL (≈ 8.24 to 29.4 µM); in assay [4] it was 1 to 3.5 µg/mL (≈ 2.36 to 8.24 µM); in assay [5], 1 to 3.5 µg/mL (≈ 2.36 to 8.24 µM); in assay [6] it was 12.5 to 150 µg/mL (≈ 29.4 to 353 µM). Moreover, the MIC was 1 to 3.5 µg/mL (≈ 2.36 to 8.24 µM) in assay [7]; 12.5 to 150 µg/mL (≈ 29.4 to 353 µM) in assay [8]; 3.5 to 12.5 µg/mL (≈ 8.24 to 29.4 µM) in assay [9]; 3.5 to 12.5 µg/mL (≈ 8.24 to 29.4 µM) in [10]; less than 1 µg/mL in assay [11]; 12.5 to 150 µg/mL (≈ 29.4 to 353 µM) in assay [12]. For the same compound, the MIC in [13] and in [14] was 12.5 to 150 µg/mL (≈ 29.4 to 353 µM) throughout.

In the case of `CCc1c(-c2ccc3c(c2)cc(CN2CCC(NC)CC2)n3C)[nH]c(=O)c(C(=O)O)c1O` [Cpd 256, 5-ethyl-4-hydroxy-6-(1-methyl-2-((4-(methylamino)piperidin-1-yl)methyl)-1H-indol-5-yl)-2-oxo-1,2-dihydropyridine-3-carboxylic acid], the MIC fell in the range of 12.5 to 150 µg/mL (≈ 28.5 to 342 µM) in assay [1]; 12.5 to 150 µg/mL (≈ 28.5 to 342 µM) in assay [2]; 1 to 3.5 µg/mL (≈ 2.28 to 7.98 µM) in [3]; 1 to 3.5 µg/mL (≈ 2.28 to 7.98 µM) in assay [4]; 1 to 3.5 µg/mL (≈ 2.28 to 7.98 µM) in assay [5]; 12.5 to 150 µg/mL (≈ 28.5 to 342 µM) in assay [6]. The MIC was 1 to 3.5 µg/mL (≈ 2.28 to 7.98 µM) in assay [7]; 3.5 to 12.5 µg/mL (≈ 7.98 to 28.5 µM) in assay [8]; 1 to 3.5 µg/mL (≈ 2.28 to 7.98 µM) in assay [9]; 1 to 3.5 µg/mL (≈ 2.28 to 7.98 µM) in [10]; less than 1 µg/mL in assay [11]; 3.5 to 12.5 µg/mL (≈ 7.98 to 28.5 µM) in [12]. Moreover, the MIC in assay [13] and in assay [14] was 12.5 to 150 µg/mL (≈ 28.5 to 342 µM) each time.
